Laboratory results from a melting point compilation (Tetko et al.; mined from patent text by program, amines drawn as free bases though some values may be those of a salt).
Residues, ends and D or L forms follow the SMILES beside them. *: point of attachment. Cbz = O=C(OCc1ccccc1)*; Boc = CC(C)(C)OC(=O)*

| Structure (SMILES) | melting point |
| --- | --- |
| CC#CCOc1ccc(OCCC(=O)O)cc1 | 88 to 92 °C |
| COc1cc(NC(C)=O)c(Cl)cc1C(=O)[NH+]([O-])C1CCN(CC2CCCCC2)CC1 (stereo not given) | 206 to 208 °C |
| N#Cc1cccc2c1COc1ccc(OCc3ccc4cc(F)c(Cl)cc4n3)cc1C2SCCC(=O)O (stereo not given) | 125 to 128 °C |
| COc1ccc(C(Sc2cc(Oc3ccccc3)ccc2N)C(O)C(=O)O)cc1Cl (stereo not given) | 168 to 170 °C |
| CC(=O)O[C@@H](Cc1ccc(OCCN2CCC(C)(C)c3cc(C(=O)c4ccccc4)ccc32)cc1)C(=O)O | 60 to 62 °C |
| CCOC(=O)c1cn(CCF)c2nc(N3CCC(N(C)C(C)=O)C3)c(F)cc2c1=O (stereo not given) | 227 to 229 °C |
| CCCCc1nc2cccc(C(=O)OC)c2n1Cc1ccc(-c2ccccc2N)cc1 | 97 to 99 °C |
| Cn1ncc(/C=C/C(=O)Nc2ccc(CS(C)=O)cc2)c1-c1ccc(F)cc1 (stereo not given) | 240 to 241 °C |
| O=C(CS(=O)(=O)c1ccc(Cl)cc1C(=O)O)c1ccccc1 | 170 to 171 °C |
| COC(=O)c1ccc(Cn2nnc3ccc(NC(=O)CC4CCCC4)cc32)c(OC)c1 | 206 to 208 °C |
| O=C1N(Cc2ccccn2)c2ccc3ncsc3c2C12COc1cc3c(cc12)OCCO3 (stereo not given) | 156 to 158 °C |
| COc1cc(COc2nn(C)cc2CO)ccc1OCc1nc(-c2ccccc2)oc1C | 108 to 109 °C |
| CCN(CC)CCNC(=O)N1CCCC(S(=O)(=O)c2ccc(OCCN(C)C)cc2)C1 (stereo not given) | 79 to 80 °C |
| CS(=O)(=O)c1ccc(-c2nn(CC#N)c(C(F)(F)F)c2-c2ccc(F)cc2)cc1 | 192 to 194 °C |
| C=CCOC(C(Cc1ccc(Cl)cc1)n1cncn1)C1(C)COCOC1 (stereo not given) | 113 to 115 °C |
| CC(C)(COCc1cccc(Oc2ccccc2)c1)c1ccc(O)c(Cl)c1 | 68 to 69 °C |
| OCc1c(-c2ccc(F)cc2)nn2ccc3c(c12)CCO3 | 189 to 190 °C |
| CCCC1COc2c(Cc3ccc(C(C)C)cc3)c(C)c(NC(=O)CC(C)(C)C)c(C)c21 (stereo not given) | 144 to 145 °C |
| COc1ccc2c(c1)c(CC(=O)O)c(C)n2C(=O)c1ccc(F)cc1 | 130 to 132 °C |
| COC(C(=O)O)c1ccsc1 (stereo not given) | 80 to 82 °C |
| Fc1ccc(F)c2c(NCCc3ccc(Oc4ccnc(C(F)(F)F)c4)cc3)ncnc12 | 95 to 96 °C |
| CC1Sc2nc3c(cnn3C)c(=O)n2C1C (stereo not given) | 168 to 170 °C |
| Cn1c(=O)[nH]c(=O)n(-c2ccc(F)cc2Cl)c1=O | 225 to 228 °C |
| CC(C)(C)OC(=O)NC(CCCCNC(=O)OCc1ccccc1)C(=O)N1CCCC1C(=O)NC(CCCNC(=N)N)C(=O)O (stereo not drawn) (Boc-Lys(Cbz)-Pro-Arg-OH; configuration not given here) | 90 °C |
| O=C(c1cccc(Br)c1)C(Br)C(Br)c1cc(Br)ccc1[N+](=O)[O-] (stereo not given) | 187 to 188 °C |

| Structure (SMILES) | melting point |
| --- | --- |
| O=C(O)c1cc(=O)c(Oc2ccc(C3CCCCC3)cc2)co1 | 187 to 190 °C |
| O=C(Nc1ccc2oc3c(c2c1)CCCC3)C12CC3CC(CC(C3)C1)C2 | 247 to 248 °C |
| CCOC(=O)C(=O)Nc1cc(C)c(C(=O)OCC)s1 | 141 to 142 °C |
| CC1CCC(Nc2ccccc2)c2ncc(C(=O)O)c(=O)n21 (stereo not given) | 198 to 199 °C |
| COC(=O)/C=C/c1ccc(Br)s1 | 60 to 62 °C |
| COC(=O)Cc1nc(-c2ccc3ccccc3c2)oc1C | 86 to 87 °C |
| C=C1C(O)C(CO)OC1n1cc(Cl)c(N)nc1=O (stereo not given) | 168 to 170 °C |
| CCCc1c(SCCCOc2ccc3c(=O)cc(CCC(=O)O)oc3c2CCC)ccc(C(C)=O)c1O | 122 to 124 °C |
| COc1ccccc1OCCN1CCC(Cc2c[nH]c3ccc(F)cc23)CC1 | 91 °C |
| COc1ccc(C(=O)n2c(Br)c(Br)c(C#N)c2Br)cc1 | 86 to 89 °C |
| CNC(=S)NCCCCc1nccs1 | 130 to 132 °C |
| COC1C=C(C)C(=O)CC(C)(C)C1OC(=O)c1ccc([N+](=O)[O-])cc1[N+](=O)[O-] (stereo not given) | 148 to 149 °C |
| O=C(c1ccccc1)N(CCCCn1ccnc1)C1=Nc2cccc3cccc1c23 | 139 to 140 °C |
| COC(=O)c1ccccc1Nc1c(Cl)cccc1Cl | 100 to 103 °C |
| O=C1CCN(C(=O)c2ccc(Cl)cc2Cl)c2ccc(Cl)cc21 | 177 to 178 °C |
| CC(CSC(=O)Nc1ccccc1)C(=O)N(CC(=O)O)C1CCCC1 (stereo not given) | 170 to 172 °C |
| CCS(=O)(=O)CCC(=O)NNC(=O)N1Cc2ccccc2Oc2c(Cl)cccc21 | 209 to 211 °C |
| Nc1ccccc1-c1ncco1 | 31 to 32 °C |
| N=C(N)c1ccc(C(=O)N[C@@H](Cc2ccccc2)C(=O)c2ccc(OCC(=O)O)cc2)cc1 | > 200 °C |
| COc1cc(CO)nnc1OC | 151 to 153 °C |
| COc1ccc(S(=O)(=O)Nc2c(C#N)cc(C)cc2C(=O)O)cc1 | 162 °C |
| CCOC(=O)NOC(=O)c1ccc(Cl)cc1 | 79 °C |
| CCOC(=O)c1ccccc1NC(=O)CNc1ccccc1F | 79 to 81 °C |
| N#Cc1ccccc1S(=O)(=O)N1CCCC1c1ccc(F)cc1 (racemic) | 101 °C |
| N#Cc1c(F)cccc1-c1ccccc1 | 78 to 79 °C |

| Structure (SMILES) | melting point |
| --- | --- |
| COC(=O)c1cc(N)cc(C(F)(F)F)n1 | 114 °C |
| CCOC(=O)C(=NOC)c1noc(N)n1 | 143 to 146 °C |
| Nc1ccc(S(=O)(=O)Nc2ccc(Cl)cc2Cl)cc1C(=O)O | 224 °C |
| Nc1cc2c(cc1Oc1ccccc1)C(=O)OC2 | 205 to 206 °C |
| COc1cc(Nc2nccc(-c3ccc(N4CCN(C)[C@@H](C)C4)nc3)n2)cc(OC)c1OC | 92 to 93 °C |
| N#Cc1cc(C=C2NC(=S)NC2=O)cc(O)c1O | 210 to 213 °C |
| CCOC(=O)c1sc(C)c2c1CCCC2=O | 76 to 77 °C |
| CCOc1nn(Cc2ccc(OCc3ccc4ccccc4n3)cc2)cc1CCC(=O)O | 140 to 141 °C |
| CCOC(=O)C1=C(C)Nc2c(C(=O)OCC)ncn2C1c1cccc([N+](=O)[O-])c1 (stereo not given) | 160 to 162 °C |
| COc1ccccc1S(=O)(=O)N(C)c1cccc2cc(C3=NCC(CC(=O)O)S3)[nH]c12 (stereo not given) | 197 to 198 °C |
| O=C1CCCN(Cc2ccc([N+](=O)[O-])cc2Cl)c2ncccc21 | 162 °C |
| CS(=O)(=O)c1ccc(-c2cnn(CC(F)(F)F)c(=O)c2Oc2ccc(-c3ccccc3)cc2)cc1 | 163 to 165 °C |
| O=CC1CC1(c1cccc(F)c1)c1cccc(F)c1 (stereo not given) | 49 to 51 °C |
| O=[N+]([O-])c1cc(Br)ccc1NCC(F)(F)F | 118 to 120 °C |
| O=C(O)CCCC/C=C/c1ccccc1CO | 92 to 94.5 °C |
| Cc1sc(-c2ccccc2F)nc1O | 159 to 160 °C |
| CC(=O)c1c(F)cccc1N1CCN(C(=O)OC(C)(C)C)CC1 | 88 °C |
| Fc1ccccc1C1CCC(=S)Nc2ccc(Cl)cc21 (stereo not given) | 190 °C |
| COCCNC(=S)n1nc(Oc2c(Cl)cc(C(F)(F)F)cc2Cl)cc1C | 83 to 86 °C |
| O=C(NC1CCC1)c1ccc(-c2ccc3nnn(Cc4ccc5ncccc5c4)c3n2)cc1F | 171 to 174 °C |
| CC(C)CC1(C(CCN2C(=O)c3ccccc3C2=O)C(=O)NO)CCN(Cc2ccccc2)C1=O (stereo not given) | 162 to 164 °C |
| COc1ccc(CCC(=O)c2c(OC)cc(OC)c(CCC(C)C)c2OCC(=O)O)cc1O | 129 to 130 °C |
| CCCc1c(OCCCBr)ccc(C(C)=O)c1O | 38 to 40 °C |
| COc1cc(COc2nn(-c3ccccc3)cc2C=O)ccc1OCc1nc(N2CCCCC2)sc1C | 180 to 181 °C |
| CC(C)c1ccc(N(Cc2ccc(N(C)C)cc2)C(=O)C2CCCc3c(O)ccc(F)c32)cc1 (stereo not given) | 209 °C |

| Structure (SMILES) | melting point |
| --- | --- |
| OCCNc1nc2ccccc2o1 | 162 to 164 °C |
| Cc1cc(C)n(CC(C)C)c(=O)c1C#N | 126 to 128 °C |
| CC(=O)OC1(C(=O)CO)CCC2C3CCC4=CC(=O)C=CC4(C)C3C(O)CC21C (stereo not given) | 223 to 224 °C |
| CCOC(=O)Cc1cnc(NC(C)C)nc1Cl | 67 to 71 °C |
| CC(C)(C)N(Cc1ccccc1)CC(O)COc1cccc2c1CNC(=O)N2 (stereo not given) | 215 to 217 °C |
| COc1ccc(OC)c2c1COC2=O | 168 to 170 °C |
| O=C(NC1=NCCCC1)Nc1ccc(Cl)cc1 | 200 to 203 °C |
| COC(=O)c1ccc(-c2c(C(=O)N(C)Cc3cc(C(F)(F)F)cc(C(F)(F)F)c3)n(C)c(=O)c3ncccc23)cc1 | 123 to 125 °C |
| O=C(CCc1cccc2[nH]ccc12)c1ccccc1OCCN1CCCCC1 | 78 °C |
| CS(=O)(=O)c1cccc(NC(=O)c2cnn3c(C(F)F)cc(-c4ccc(C(F)(F)F)cc4)nc23)c1 | 251 °C |
| CC(=O)Nc1ccccc1CCc1ccccn1 | 230 to 232 °C |
| CC(C(N)=S)(c1ccccc1)c1ccccc1 | 150 to 152 °C |
| N#CC=C1CCN(c2ccc(N3C[C@H](CNC(=O)C(Cl)(Cl)Cl)OC3=O)cc2F)CC1 | 142 to 144 °C |
| Cc1cc(-c2nnc3c4ccccc4c(OCc4cscn4)nn23)no1 | 227 to 229 °C |
| NC(=O)Cc1ccc(-c2ccc3nnn(Cc4ccc5ncccc5c4)c3n2)cc1 | 220 to 223 °C |
| CN1CCCCC1=NC(=O)Nc1ccc(C(F)(F)F)cc1 | 154 to 155 °C |
| CC(C)C1(C)NC(c2nc3ccc(Cl)cc3cc2C(=O)O)=NC1=O (stereo not given) | 234 to 237 °C |
| CC(=O)NCCNc1nc(-c2ccc(=O)n(C(C)C)n2)c(-c2ccccc2)nc1N | 147 to 149 °C |
| Fc1ccc(OCCCCCCN2CCN(c3nccs3)CC2)cc1 | 58 to 60 °C |
| COc1cc(C(=O)O)ccc1Cn1ccc2ccc(NC(=O)CC3CCCC3)cc21 | 259 to 260 °C |
| CCC(=O)NC1=NN(c2ccccc2)CC1 | 170 to 171 °C |
| CC(C)(C)OC(=O)NC(=N)NC(=O)OCc1ccccc1 | 125 to 126 °C |
| Cc1c(C)c2ccc(CCCCCN3CCN(c4cccc(Cl)c4Cl)CC3)nc2[nH]c1=O | 202 to 203 °C |
| CCCCCC(O)CCc1ccc(CCCCCCCC(=O)O)o1 (stereo not given) | 43 to 45 °C |
| CC1(C)CC(c2ccc(F)cc2)=C(/C=C/[C@H]2C[C@H](O)CC(=O)O2)C(C)(C)C1 (relative stereo) | 121 to 122 °C |
